± gives the expanded uncertainty stated by the source.
Experiment: mn = molality of the nth substance listed, in mol/kg
Conditions: 101 kPa, Liquid; for mass density: Pycnometric method; for viscosity: Capillary tube (Ostwald / Ubbelohde) method; for speed of sound: Linear variable-path acoustic interferometer

CC(=O)[O-].CC(=O)[O-].[Mg+2] [magnesium acetate] + O
Conditions | mass density [kg/m3] | speed of sound [m/s] | viscosity [mPa·s]
314.7 K, m1 = 1.608 | 1097.8 ± 0.7 | – | –
314.75 K, m1 = 2.134 | 1125.2 ± 0.8 | – | –
314.85 K, m1 = 2.622 | 1148.5 ± 0.8 | – | –
315 K, m1 = 5.165 | 1241.7 ± 0.9 | – | –
315.2 K, m1 = 0.1671 | 1003.8 ± 0.7 | – | –
315.25 K, m1 = 3.437 | 1186.9 ± 0.8 | – | –
315.55 K, m1 = 3.819 | 1198.5 ± 0.8 | – | –
315.65 K, m1 = 3.043 | 1166.4 ± 0.8 | – | –
315.85 K, m1 = 1.866 | 1110.4 ± 0.8 | – | –
316.05 K, m1 = 1.106 | 1068 ± 0.7 | – | –
316.05 K, m1 = 6.187 | 1269 ± 0.9 | – | –
316.25 K, m1 = 0.0414 | 994.01 ± 0.67 | – | –
316.35 K, m1 = 6.545 | 1276.6 ± 0.9 | – | –
316.7 K, m1 = 0.646 | 1037.6 ± 0.7 | – | –
316.95 K, m1 = 0.0831 | 996.85 ± 0.69 | – | –
317.05 K, m1 = 2.622 | 1147.3 ± 0.8 | – | –
317.1 K, m1 = 0.4247 | 1021.9 ± 0.7 | – | –
317.15 K, m1 = 1.608 | 1096.6 ± 0.7 | – | –
317.3 K, m1 = 2.134 | 1124.1 ± 0.8 | – | –
317.3 K, m1 = 5.732 | 1255.6 ± 0.9 | – | –
317.7 K, m1 = 3.819 | 1197.2 ± 0.8 | – | –
317.9 K, m1 = 6.187 | 1267.7 ± 0.9 | – | –
318 K, m1 = 4.547 | 1220.8 ± 0.9 | – | –
318.15 K, m1 = 0.0414 | – | 1539.3 ± 1.9 | 0.6244 ± 0.0082
318.15 K, m1 = 0.0831 | – | 1546 ± 1.9 | 0.6418 ± 0.0085
318.15 K, m1 = 0.1671 | – | 1552.2 ± 1.9 | 0.6857 ± 0.009
318.15 K, m1 = 0.4247 | – | 1587.9 ± 1.9 | 0.8341 ± 0.011
318.15 K, m1 = 0.646 | – | 1613.4 ± 1.9 | 0.9967 ± 0.013
318.15 K, m1 = 0.8751 | – | 1638.1 ± 1.9 | 1.163 ± 0.015
318.15 K, m1 = 1.106 | – | 1661.5 ± 2 | 1.405 ± 0.018
318.15 K, m1 = 1.354 | – | 1683.6 ± 2 | 1.679 ± 0.022
318.15 K, m1 = 1.608 | – | 1705.8 ± 2 | 1.679 ± 0.022
318.15 K, m1 = 1.866 | – | 1727.8 ± 2 | 2.437 ± 0.032
318.15 K, m1 = 2.134 | – | 1749.8 ± 2 | 2.967 ± 0.04
318.15 K, m1 = 2.411 | – | 1773.8 ± 2 | 3.777 ± 0.051
318.15 K, m1 = 2.622 | – | 1782.8 ± 2 | 4.254 ± 0.058
318.15 K, m1 = 3.043 | – | 1808.1 ± 2.1 | 5.774 ± 0.08
318.15 K, m1 = 3.437 | – | 1832 ± 2.1 | 8.453 ± 0.12
318.15 K, m1 = 3.819 | – | 1846.6 ± 2.1 | –
318.15 K, m1 = 4.001 | – | – | 12.63 ± 0.18
318.15 K, m1 = 4.547 | – | 1868.1 ± 2.1 | –
318.15 K, m1 = 4.563 | – | – | 19.6 ± 0.29
318.15 K, m1 = 4.929 | – | – | 24.03 ± 0.38
318.15 K, m1 = 5.165 | – | 1882.7 ± 2.1 | –
318.15 K, m1 = 5.41 | – | – | 41.38 ± 0.57
318.15 K, m1 = 5.732 | – | 1888.5 ± 2.2 | 53.77 ± 0.88
318.15 K, m1 = 6.187 | – | – | 87.61 ± 1.7
318.2 K, m1 = 1.866 | 1109.3 ± 0.8 | – | –
318.25 K, m1 = 6.545 | 1275.3 ± 0.9 | – | –
318.5 K, m1 = 0.0414 | 992.99 ± 0.68 | – | –
318.6 K, m1 = 1.327 | 1079.4 ± 0.8 | – | –
318.6 K, m1 = 2.411 | 1138.3 ± 0.8 | – | –
318.85 K, m1 = 5.165 | 1239 ± 0.9 | – | –
319.1 K, m1 = 1.354 | 1080.6 ± 1.1 | – | –
319.15 K, m1 = 0.646 | 1036.5 ± 0.7 | – | –
319.25 K, m1 = 2.622 | 1146.1 ± 0.8 | – | –
319.35 K, m1 = 0.8751 | 1050.8 ± 0.7 | – | –
319.4 K, m1 = 0.0831 | 995.82 ± 0.69 | – | –
319.5 K, m1 = 1.608 | 1095.5 ± 0.7 | – | –
319.5 K, m1 = 2.134 | 1122.8 ± 0.8 | – | –
319.65 K, m1 = 3.437 | 1184.4 ± 0.9 | – | –
319.95 K, m1 = 3.043 | 1164.1 ± 0.8 | – | –
319.95 K, m1 = 4.547 | 1219.5 ± 0.9 | – | –
319.95 K, m1 = 6.545 | 1273.9 ± 1 | – | –
320 K, m1 = 0.1671 | 1001.7 ± 0.7 | – | –
320.85 K, m1 = 0.0414 | 991.94 ± 0.7 | – | –
320.85 K, m1 = 5.732 | 1253 ± 0.9 | – | –
320.95 K, m1 = 1.106 | 1065.8 ± 0.8 | – | –
321.4 K, m1 = 0.646 | 1035.4 ± 0.7 | – | –
321.55 K, m1 = 6.187 | 1265.1 ± 0.9 | – | –
321.7 K, m1 = 3.819 | 1194.7 ± 0.9 | – | –
321.8 K, m1 = 6.545 | 1272.5 ± 0.9 | – | –
322.15 K, m1 = 0.4247 | 1019.9 ± 0.7 | – | –
322.15 K, m1 = 3.043 | 1162.9 ± 0.8 | – | –
322.3 K, m1 = 0.1671 | 1000.8 ± 0.7 | – | –
322.45 K, m1 = 5.165 | 1236.5 ± 0.9 | – | –
322.85 K, m1 = 1.866 | 1107.1 ± 0.8 | – | –
323.05 K, m1 = 1.106 | 1064.8 ± 0.7 | – | –
323.05 K, m1 = 1.327 | 1077.2 ± 0.8 | – | –
323.05 K, m1 = 2.411 | 1135.8 ± 0.9 | – | –
323.15 K, m1 = 0.0414 | 990.94 ± 0.66 | 1544.5 ± 1.9 | 0.5741 ± 0.0076
323.15 K, m1 = 0.0831 | – | 1549.2 ± 1.9 | 0.5893 ± 0.0078
323.15 K, m1 = 0.1671 | – | 1557.7 ± 1.9 | 0.6282 ± 0.0083
323.15 K, m1 = 0.4247 | – | 1591.1 ± 1.9 | 0.7596 ± 0.0099
323.15 K, m1 = 0.646 | – | 1615.2 ± 1.9 | 0.9059 ± 0.012
323.15 K, m1 = 0.8751 | – | 1637.7 ± 1.9 | 1.052 ± 0.014
323.15 K, m1 = 1.106 | – | 1662.2 ± 2 | 1.271 ± 0.017
323.15 K, m1 = 1.354 | – | 1683.9 ± 2 | 1.503 ± 0.021
323.15 K, m1 = 1.608 | – | 1703.7 ± 2 | 1.503 ± 0.019
323.15 K, m1 = 1.866 | – | 1725 ± 2 | 2.166 ± 0.03
323.15 K, m1 = 2.134 | – | 1746.5 ± 2 | 2.61 ± 0.034
323.15 K, m1 = 2.411 | – | 1767.3 ± 2 | 3.295 ± 0.046
323.15 K, m1 = 2.622 | – | 1778.6 ± 2 | 3.695 ± 0.049
323.15 K, m1 = 3.043 | – | 1800.3 ± 2.1 | 4.961 ± 0.064
323.15 K, m1 = 3.437 | – | 1825 ± 2.1 | 7.136 ± 0.1
323.15 K, m1 = 3.819 | – | 1837.4 ± 2.1 | –
323.15 K, m1 = 4.001 | – | – | 10.52 ± 0.14
323.15 K, m1 = 4.547 | – | 1857.2 ± 2.1 | –
323.15 K, m1 = 4.563 | – | – | 15.97 ± 0.24
323.15 K, m1 = 4.929 | – | – | 19.29 ± 0.26
323.15 K, m1 = 5.165 | – | 1871 ± 2.1 | –
323.15 K, m1 = 5.41 | – | – | 32.16 ± 0.48
323.15 K, m1 = 5.732 | – | 1874.6 ± 2.1 | 41.44 ± 0.6
323.15 K, m1 = 6.187 | – | – | 65.72 ± 1.2
323.45 K, m1 = 6.545 | 1271.3 ± 0.9 | – | –
323.5 K, m1 = 2.622 | 1143.8 ± 0.7 | – | –
323.65 K, m1 = 1.354 | 1078.3 ± 1 | – | –
323.75 K, m1 = 0.646 | 1034.3 ± 0.7 | – | –
323.75 K, m1 = 3.437 | 1181.9 ± 1.4 | – | –
323.75 K, m1 = 4.547 | 1217.1 ± 0.9 | – | –
323.95 K, m1 = 0.8751 | 1048.7 ± 0.7 | – | –
323.95 K, m1 = 2.134 | 1120.5 ± 0.9 | – | –
324.05 K, m1 = 1.608 | 1093.3 ± 0.8 | – | –
324.1 K, m1 = 0.0831 | 993.76 ± 0.64 | – | –
324.25 K, m1 = 0.4247 | 1018.8 ± 0.9 | – | –
324.25 K, m1 = 5.165 | 1235.2 ± 1 | – | –
324.55 K, m1 = 5.732 | 1250.4 ± 1 | – | –
325.15 K, m1 = 6.187 | 1262.4 ± 0.9 | – | –
325.25 K, m1 = 6.545 | 1269.9 ± 1 | – | –
325.75 K, m1 = 3.819 | 1192.2 ± 0.9 | – | –
328.55 K, m1 = 6.187 | 1259.8 ± 0.9 | – | –
